Results as given in patent US20240173249A1, “COSMETIC COMPOSITION CONTAINING BEE POLLEN EXOSOME” (LG HOUSEHOLD & HEALTH CARE LTD., priority 2022, published 2024).

Columns and labels:
Assay type in all cases: cell-based
Raw 264.7 cells = assay: NO production inhibition, LPS-treated cells, NO quantification kit; settings: positive control, 200 ppm
Description: In order to verify the skin soothing and anti-inflammatory effects of the bee pollen exosome raw material prepared in Preparation Example 2, the NO production inhibitory effect was measured as follows, and compared with those of the pollen extract raw material, the bee pollen extract raw material, and the plant-derived exosome raw material which are the control groups.
In detail, the NO production inhibitory effects of the above samples were measured using Raw 264.7 cells. As a positive control, 20 mg/ml L-NMMA1 (NOS inhibitor) was used, and the samples were diluted to 0.01% and 0.1% concentrations (v/v %) and treated for 30 minutes, followed by treatment with 1 μg/ml LPS and culturing for 24 hours. Then, the ability to inhibit NO production was evaluated using a NO quantification kit as follows. All results were expressed as mean±standard deviation (SD) after three or more independent experiments.
NO production inhibitory ability (%)=(1−([…] NO production amount with sample addition))/(NO production amount without sample addition)×100

B16f10 melanocytes = assay: Melanin production inhibition in melanocytes; settings: Mus musculus, B16-F10, positive control, read-out: inhibition of melanin synthesis
Description: In order to verify the whitening effect of the bee pollen exosome raw material prepared in Preparation Example 2, the melanin production-inhibitory effect was measured as follows.
In detail, the whitening efficacy of the bee pollen exosome raw material was evaluated by measuring the degree of reduction in the amount of melanin pigment present in melanocytes. The bee pollen exosome raw material was diluted to 0.01% and 0.1% concentrations (v/v %), and B16f10 melanocytes were treated therewith, and cultured for 72 hours, and melanin was quantified to evaluate the whitening efficacy. The melanin content was calculated based on the total protein amount, and the melanin production inhibition rate was calculated as %, based on a DMSO control group. 200 ppm of arbutin was treated as a positive control group.
In detail, the bee pollen extract raw material was prepared by grinding the same amount of bee pollens in the same manner as in preparing the bee pollen exosome, and by extracting using a general low-temperature extraction method of using purified water for 24 hours to 72 hours under the same temperature conditions (4° C. to 25° C.). […]

[1] = test system: human dermal fibroblast (HDF) cells; assay: Collagen synthesis efficacy (procollagen type I C-peptide EIA); settings: positive control, 10 ng/ml, compared to untreated group
Description: To verify the collagen synthesis effect of the bee pollen exosome raw material prepared in Preparation Example 2, measurements were performed as follows.
In detail, the collagen synthesis effect was evaluated using human dermal fibroblast (HDF) cells. After pre-treating the cells with the bee pollen exosome raw material sample for 48 hours, collagen synthesis efficacy was measured using a human procollagen type I C-peptide (PIP) EIA kit. The collagen synthesis efficacy of the sample was determined by calculating the increased value in percentage (%), as compared to the untreated control group, and the results are shown in a table. 10 ng/ml TGF-b was used as a positive control group.
All of the above samples were diluted to 0.01% and 0.1% concentrations (v/v %) and evaluated.

CNC(=N)NCCC[C@H](N)C(=O)O [L-NMMA1]
NO production inhibition ability (Raw 264.7 cells): 59.17%

OC[C@H]1O[C@@H](Oc2ccc(O)cc2)[C@H](O)[C@@H](O)[C@@H]1O [arbutin]
inhibition at 200 ppm (B16f10 melanocytes): 38.1%

TGF-b: 10 ng/ml TGF-b used as positive control for collagen synthesis
collagen synthesis increase [1]: 29.87%
